Assay results reported in ChEMBL document CHEMBL1201862, “PubChem BioAssay data set” (2004).
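How tested: cells in 96-well plates exposed to compound for 48 hours at five concentrations. Abbreviation: GI50, concentration required for 50% inhibition of growth.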 Active and inactive are the calls of the source. Rule as the data show it: active = GI50 up to about 1.1 µM and inactive = higher.

How the values were obtained:
Assay in all cases: NCI tumour cell line growth inhibition, 48 h
HL-60 = tested on: HL-60
SF-295 = tested on: SF-295
HOP-62 = tested on: HOP-62
HT-29 = tested on: HT-29
MDA-MB-231 = tested on: MDA-MB-231
DU-145 = tested on: DU-145
M14 = tested on: M14
NCI/ADR-RES = tested on: NCI/ADR-RES
MOLT-4 = tested on: MOLT-4
SN12C = tested on: SN12C
SW-620 = tested on: SW-620
SK-MEL-28 = tested on: SK-MEL-28
Hs-578T = tested on: Hs-578T
SK-MEL-5 = tested on: SK-MEL-5
HCT-15 = tested on: HCT-15
SK-MEL-2 = tested on: SK-MEL-2
EKVX = tested on: EKVX
K562 = tested on: K562
786-0 = tested on: 786-0
SK-OV-3 = tested on: SK-OV-3

Compound | GI50 (HL-60) | GI50 (SF-295) | GI50 (HOP-62) | GI50 (HT-29) | GI50 (MDA-MB-231) | GI50 (DU-145) | GI50 (M14) | GI50 (NCI/ADR-RES) | GI50 (MOLT-4) | GI50 (SN12C) | GI50 (SW-620) | GI50 (SK-MEL-28) | GI50 (Hs-578T) | GI50 (SK-MEL-5) | GI50 (HCT-15) | GI50 (SK-MEL-2) | GI50 (EKVX) | GI50 (K562) | GI50 (786-0) | GI50 (SK-OV-3)
Nc1nc(N)c2c(n1)NC(c1ccccc1)CC(/C=C/c1ccc(Cl)cc1)=N2 (stereo not given) | 10.2 µM (inactive) | 14.1 µM (inactive) | 14.8 µM (inactive) | 3.95 µM (inactive) | 3.23 µM (inactive) | 9.23 µM (inactive) | 11.6 µM (inactive) | 3.15 µM (inactive) | 1.89 µM (inactive) | 8.89 µM (inactive) | 10.4 µM (inactive) | 13.5 µM (inactive) | 2.95 µM (inactive) | 9.4 µM (inactive) | 5.97 µM | 14.6 µM (inactive) | 4.32 µM (inactive) | 2.65 µM (inactive) | 3.11 µM (inactive) | 15.7 µM (inactive)
COc1ccc2c(CCNS(=O)(=O)c3ccccc3)c(C(C)=O)[nH]c2c1 | > 75.3 µM (inactive) | 80.4 µM (inactive) | > 50.6 µM (inactive) | > 46.8 µM (inactive) | > 85.5 µM (inactive) | > 80.2 µM (inactive) | > 64.4 µM (inactive) | 63.2 µM (inactive) | 48.8 µM (inactive) | 38.5 µM (inactive) | > 100 µM (inactive) | 63.8 µM (inactive) | 46 µM (inactive) | > 42.8 µM (inactive) | > 75.2 µM | > 100 µM (inactive) | > 100 µM (inactive) | > 74 µM (inactive) | 49.5 µM (inactive) | > 80.9 µM (inactive)
CCCCCC(/C=N/Nc1ccccc1)C(O)(C(F)(F)F)C(F)(F)F (stereo not given) | > 100 µM (inactive) | > 100 µM (inactive) | > 100 µM (inactive) | > 100 µM (inactive) | > 100 µM (inactive) | > 100 µM (inactive) | > 100 µM (inactive) | > 100 µM (inactive) | 61.8 µM (inactive) | > 100 µM (inactive) | > 100 µM (inactive) | > 100 µM (inactive) | > 100 µM (inactive) | > 100 µM (inactive) | > 100 µM | > 100 µM (inactive) | > 100 µM (inactive) | > 100 µM (inactive) | > 100 µM (inactive) | > 100 µM (inactive)
COc1cc2cc(C(=O)N3CC(CCl)c4c3cc(NC(=O)C(C)(C)c3ccccc3[N+](=O)[O-])c3ccccc43)[nH]c2c(OC)c1OC (stereo not given) | 1.36 µM (inactive) | 1.67 µM (inactive) | 0.187 µM (active) | 1.6 µM (inactive) | 3.03 µM (inactive) | 0.147 µM (active) | 1.75 µM (inactive) | 1.12 µM (active) | 1.71 µM (inactive) | 4.23 µM (inactive) | 1.09 µM (active) | 7.16 µM (inactive) | 9.33 µM (inactive) | 1.77 µM (inactive) | 1.98 µM | 6.93 µM (inactive) | 11.7 µM (inactive) | 0.991 µM (active) | 1.36 µM (inactive) | 2.75 µM (inactive)
N=c1oc2cc(O)ccc2cc1C(=O)Nc1ccccn1 | 30.5 µM (inactive) | > 100 µM (inactive) | > 100 µM (inactive) | 29.7 µM (inactive) | 54.3 µM (inactive) | 25.4 µM (inactive) | 59.7 µM (inactive) | 48.8 µM (inactive) | 1.78 µM (inactive) | 62.2 µM (inactive) | 77.1 µM (inactive) | 76.7 µM (inactive) | > 100 µM (inactive) | 42.3 µM (inactive) | 51.5 µM | 28.8 µM (inactive) | 40.2 µM (inactive) | 26.5 µM (inactive) | 16.4 µM (inactive) | 37.2 µM (inactive)
